The source of these data is patent publication US7884122B2, “Extended release formulation and method of treating adrenergic dysregulation” (Shionogi Pharma, Inc., priority 2007, dated 2011).

Converted amounts (≈) assume the structure as drawn.

Series [1] has as its system systolic and diastolic blood pressure. The series is described as follows: animal or person. The conditions noted are these: Homo sapiens, 600 h, Systolic BP vs AUCτ at Day 25, sigmoidal Emax model. As to the method: Mean baseline ABPM data for the three treatment groups were compared with mean data obtained on Day 26 (last day of treatment) and on Days 27 and 28. A more detailed PK/PD analysis was conducted by using the individual patient ABPM data to compare the blood pressure profile at Baseline and on Day 26 of treatment. The daytime (0- to 12-hour) intervals were used in the analysis, since pharmacokinetic data were collected on Day 25, over the daytime 12-hour dosing interval at steady state. In order to investigate the maintenance of effect at the tail end of the inter-dosing interval, differences between the SBP, DBP, and HR values at Baseline and the last two hours in the inter-dosing interval (Hours 11 and 12) on Day 26 were calculated for each patient. Paired t-tests were performed to test the significance of these differences between Baseline and the last two measuring times. The approach taken to quantify the effects of clonidine on blood pressure was to calculate the difference between the areas under the BP vs. time curves (AUCBP) at Baseline and on Day 26. These values were used to relate the pharmacodynamic effect to dose, as well as to conduct the PK/PD analyses.
Pharmacokinetic-pharmacodynamic modeling was conducted using the blood pressure response data and the Cmax, Cmin and AUCτ values at Day 25 of dosing. […]

The conditions of series [2]: traditional oral formulation of clonidine; cited from earlier work.

For orientation: EC50 means the concentration at which the effect is half-maximal. The low end stands for an effect from little substance, the high end for a need for much substance. Broadly, the EC90 is the point of the concentration-response curve where the effect stands at 90%.

As for `Clc1cccc(Cl)c1N=C1NCCN1` [clonidine, 2,6-dichloro-N-2-imidazolidinylidene benzeneamine], in series [1], the response was half-maximal at 4.7 ng/mL (≈ 0.0204 µM) (EC50) and it took 6.69 ng/mL (≈ 0.0291 µM) to reach the 90% level (EC90). Besides, in series [2], the biological half-life entry is “about four to six hours”.
